Patent US8203033B2, “Methods and compositions for providing tolerance to multiple herbicides” (Pioneer Hi-Bred International, Inc., priority 2005, dated 2012)

Assays:
[1] = test system: non-transformed GS3 embryos; test: Glyphosate kill curve; type: cell-based, maize; conditions: about 40 days culture
Protocol: A glyphosate kill curve was established by testing non-transformed embryos response on media with different levels of glyphosate. GS3 embryos were isolated from an immature ear and placed onto media containing glyphosate at 0.0, 0.5, 1.0, and 2.0 mM. After about 40 days culture, the response of the embryos were observed and recorded. Similarly, infected GS3 embryos with the GAT construct were placed onto media containing glyphosate at 0.0, 0.5, 1.0, and 2.0 mM. After about 40 days culture, the response of the infected embryos were observed and recorded (FIG. 7).
Western or PCR analysis has confirmed that these resistant calli were transformed. Currently, GAT has performed consistently as an effective selectable marker with excellent transformation efficiency in both GS3 and introEF09B genotypes (FIG. 10 and Table 45).

[2] = test system: GAT-HRA transgenic cotton plants; test: Greenhouse over-the-top herbicide spray of cotton; type: in vivo, Gossypium hirsutum
Description: (§1) Cotton (Gossypium hirsutum) Coker 312 was transformed with a GAT polynucleotide (gat 4621) together with an Hra polynucleotide (SEQ ID NO:86) both operably linked to strong, constitutive plant viral promoters. The promoter linked to gat4621 contains a duplicated portion of the Strawberry Vein Banding Virus transcript promoter (Wang et al. Virus Genes 20: 11-17, 2000; Genbank X97304). The Hra gene was driven by a duplicated portion of the Mirabilis Mosaic Caulimovirus full-length transcript promoter (U.S. Pat. No. 6,420,547; Dey and Maiti, Transgenics 3:61-70, 1999). The transformation procedure used Agrobacterium tumefaciens containing an expression cassette with the genes to be transferred and cotyledon explant derived callus with some capacity to undergo embryogenesis. The callus was exposed to Agrobacterium for 48-72 hours. The callus was then exposed to selection for transformed cells on 50-200 μg/l chlorosulfuron and/or 50-450 μM glyphosate in solid medium. Glyphosate can also be used in a concentration range of about 5 to about 450 μM. Selection was applied until somatic embryos formed, and selection was again applied at the embryo germination step, and optionally during rooting of plantlets. Over 450 GAT-HRA transformation events were produced using selection with both chlorsulfuron and glyphosate.
(§2) Transformed cotton plants were rooted and then transferred to soil for further growth. Plants were then subjected to herbicide spray treatments in a greenhouse. […] Untransformed Coker 312 control plants were dead 2 weeks after glyphosate application. […] Plants transformed with both GAT and HRA were further subjected to an “over the top” application of the sulfonylurea herbicide rimsulfuron at a rate of 16 g active ingredient/hectare. […] In further experiments 32 g ai/ha rimsulfuron were applied to the cotton.

[3] = test system: Untransformed Coker 312 control plants; test: Greenhouse over-the-top herbicide spray of cotton; type: in vivo, Gossypium hirsutum
Description: as §1, §2

[4] = test system: parent elite stiff stalk inbred corn; test: Postemergence test of herbicides on corn (fresh weight, visual injury); type: in vivo; conditions: 3472 g ae/ha
[5] = test system: Heterozygous GAT-HRA corn; test: as above; type: in vivo; conditions: 3472 g ae/ha
[6] = test system: Hairy Fleabane (Conyza bonariensis); test: Glyphosate, metsulfuron-methyl and two additives on the control of hairy fleabane; type: in vivo; conditions: glyphosate on its own; 10-15 leaf stage
Protocol: This example included the same treatments as used in Example 11, except the treatments were carried out on a glyphosate sensitive biotype of Kleinskraalhans (Conyza bonariensis).

[7] = test system: non-glyphosate resistant ryegrass (70-04); test: Glyphosate, metsulfuron-methyl and two additives on the control of ryegrass; type: in vivo; conditions: 0.5 L ha^−1 glyphosate (SCAT)
Protocol: The example was conducted on non-glyphosate resistant ryegrass. As provided in Table 23, all treatments that included glyphosate [180 g a.i. L ha^−1 (0.5 L glyphosate (SCAT®))] plus metsulfuron-methyl (BRUSH-OFF®) (5 and 10 g ha^−1) gave 100% control of the ryegrass.

[8] = test system: non-transgenic control soybeans; test: Postemergence herbicide spray of soybeans, visual injury; type: in vivo; conditions: 35 g/ha
Protocol: (§3) Young regenerated transgenic plants were sprayed with 1× glyphosate (1× rate of glyphosate is 1120 g/ha of glyphosate isopropylamine) to cull segregants. Four replications were performed for each treatment. Plants were then treated with various herbicides, including glyphosate and ALS-inhibitor herbicides.
(§4) Six soybean seeds from each variety to be assayed were planted 1 cm deep in 5.5 (13.97 cm) inch square plastic container of a synthetic growth medium. […] When possible, containers were thinned to two uniform plants. Non-transgenic lines were thinned to two uniform plants per container.
(§5) Results are expressed below in Table 11 as the mean of four replications.

GAT-HRA soybeans = test: as above; type: in vivo; conditions: 35 g/ha
Protocol: as §3, §4, §5

O=C(O)CNCP(=O)(O)O [Glyphosate, N-phosphonomethylglycine]
embryos that showed callus initiation ([1]; 0.5 mM glyphosate in medium): about half | callus growth ([1]; 1.0 mM glyphosate in medium): very little callus growth | callus growth ([1]; 2.0 mM glyphosate in medium): very little callus growth | GAT-HRA transgenic plants that showed no deleterious symptoms ([2]; 1.5 lb acid equivalent per acre, 4-6 leaf stage, 14 days after application): approximately 50% | state of control plants after application ([3]; 1.5 lb acid equivalent per acre, 4-6 leaf stage, 2 weeks after application): dead | % Visual Injury [4]: 100% | Fresh Weight ([4]; 2 weeks after treatment): 1.0 g | % Visual Injury [5]: 10% | percentage printed with the plants killed [6]: 12% | percentage printed with the plants that died [7]: 12% | plants that eventually died [7]: 15 of the 16

CCS(=O)(=O)c1cccnc1S(=O)(=O)NC(=O)Nc1nc(OC)cc(OC)n1 [Rimsulfuron, N-[[(4,6-dimethoxy-2-pyrimidinyl)amino]carbonyl]-3-(ethylsulfonyl)-2-pyridinesulfonamide]
transgenic plants that showed no deleterious symptoms from the dual herbicide application ([2]; rimsulfuron 16 g active ingredient/hectare after glyphosate 1.5 lb ae/acre, 14 days after rimsulfuron, 28 days after glyphosate): approximately 35% | damage of untransformed plants ([3]; 16 g active ingredient/hectare, in the absence of any glyphosate application): severe damage

COC(=O)c1ccccc1S(=O)(=O)NC(=O)N(C)c1nc(C)nc(OC)n1 [Tribenuron-methyl, methyl 2-[[[[N-(4-methoxy-6-methyl-1,3,5-triazin-2-yl)-N-methylamino]carbonyl]-amino]sulfonyl]benzoate]
effect on non-transgenic control soybeans [8]: killed | damage of GAT- and HRA-containing transgenic soybeans (GAT-HRA soybeans): no significant damage
